Read-outs that look alike come from different tables or passages of the source.
Molecular target: T1, BCL6 (Homo sapiens, UniProt P41182)
T1 construct: endogenous in cells; host or cells: T47D breast cancer epithelial cells
Assay: Immunofluorescence protocol for high content imaging of BCL6 (degradation) in T47D cells, 3 days compound treatment
Assay type: cell-based
Conditions: for Dmax: read-out: Mean Dmax (%)** category; for DC50: read-out: Mean DC50 (nM)* category
Procedure, shortened: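 Read-out: high-content imaging of anti-BCL6 immunofluorescence (Alexa-488 secondary) with CellMask and Hoechst counterstains, 10×, 4 fields/well. Cells had 3 days of compound exposure at 37° C, 5% CO2, 11-point 3-fold series from a final top of 0.1 or 1 μM.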

[1] = T47D cells, 3 days compound treatment

| Structure (SMILES) | Dmax (T47D) [%] | DC50 [nM] | DC50 [1] [nM] | Dmax [1] [%] |
| --- | --- | --- | --- | --- |
| CNC(=O)COc1cc2cc(Nc3nc(N4CCN(CC5CC6(CCN(c7cc8c(cc7F)C(=O)N(C7CCC(=O)NC7=O)C8)CC6)C5)CC4)ncc3Cl)ccc2n(C(C)C)c1=O (centres unmarked) [Compound 318, 2-{[6-({5-chloro-2-[4-({7-[2-(2,6-dioxopiperidin-3-yl)-6-fluoro-1-oxo-2,3-dihydro-1H-isoindol-5-yl]-7-azaspiro[3.5]nonan-2-yl}methyl)piperazin-1-yl]pyrimidin-4-yl}amino)-2-oxo-1-(propan-2-yl)-1,2-dihydroquinolin-3-yl]oxy}-N-methylacetamide] | 50 to 70 | < 10 |  |  |
| CNC(=O)COc1cc2cc(Nc3nc(N4CCOC5(CN(CC6CCN(c7ccc8c(c7)C(=O)N(C7CCC(=O)NC7=O)C8=O)CC6)C5)C4)ncc3Cl)ccc2n(C(C)C)c1=O (centres unmarked) [Compound 142, 2-{[6-({5-chloro-2-[2-({1-[2-(2,6-dioxopiperidin-3-yl)-1,3-dioxo-2,3-dihydro-1H-isoindol-5-yl]piperidin-4-yl}methyl)-5-oxa-2,8-diazaspiro[3.5]nonan-8-yl]pyrimidin-4-yl}amino)-2-oxo-1-(propan-2-yl)-1,2-dihydroquinolin-3-yl]oxy}-N-methylacetamide] |  |  | ≥ 100 |  |
| CNC(=O)COc1cc2cc(Nc3nc(N4CCC(CN5CCC6(CN(c7cccc8c7CN(C7CCC(=O)NC7=O)C8=O)C6)C(F)(F)C5)CC4)ncc3Cl)ccc2n(C(C)C)c1=O (centres unmarked) [Compound 102, 2-{[6-({5-chloro-2-[4-({2-[2-(2,6-dioxopiperidin-3-yl)-1-oxo-2,3-dihydro-1H-isoindol-4-yl]-5,5-difluoro-2,7-diazaspiro[3.5]nonan-7-yl}methyl)piperidin-1-yl]pyrimidin-4-yl}amino)-2-oxo-1-(propan-2-yl)-1,2-dihydroquinolin-3-yl]oxy}-N-methylacetamide] |  |  | < 10 | 50 to 70 |
| CNC(=O)COc1cc2cc(Nc3nc(N4CCC(O[C@H]5C[C@H](N6CCN(c7cc8c(cc7OC)C(=O)N(C7CCC(=O)NC7=O)C8=O)CC6)C5)CC4)ncc3Cl)ccc2n(C(C)C)c1=O (some centres unmarked) [Compound 423, 2-({6-[(5-chloro-2-{4-[(1r,3r)-3-{4-[2-(2,6-dioxopiperidin-3-yl)-6-methoxy-1,3-dioxo-2,3-dihydro-1H-isoindol-5-yl]piperazin-1-yl}cyclobutoxy]piperidin-1-yl}pyrimidin-4-yl)amino]-2-oxo-1-(propan-2-yl)-1,2-dihydroquinolin-3-yl}oxy)-N-methylacetamide] | ≥ 70 | < 10 |  |  |
| CNC(=O)COc1cc2cc(Nc3nc(N4CCN(C(C)(C)C5CCN(c6ccc7c(c6)CN(C6CCC(=O)NC6=O)C7=O)CC5)CC4)ncc3Cl)ccc2n(C(C)C)c1=O (centres unmarked) [Compound 13, 2-{[6-({5-chloro-2-[4-(2-{1-[2-(2,6-dioxopiperidin-3-yl)-1-oxo-2,3-dihydro-1H-isoindol-5-yl]piperidin-4-yl}propan-2-yl)piperazin-1-yl]pyrimidin-4-yl}amino)-2-oxo-1-(propan-2-yl)-1,2-dihydroquinolin-3-yl]oxy}-N-methylacetamide] |  |  | < 10 | ≥ 70 |
| CNC(=O)COc1cc2cc(Nc3nc(N4CCN(CC5CCN(c6cc(F)c7c(c6)CN(C6CCC(=O)NC6=O)C7=O)CC5)CC4)ncc3Cl)ccc2n(C(C)C)c1=O (centres unmarked) [Compound 18, 2-{[6-({5-chloro-2-[4-({1-[2-(2,6-dioxopiperidin-3-yl)-7-fluoro-1-oxo-2,3-dihydro-1H-isoindol-5-yl]piperidin-4-yl}methyl)piperazin-1-yl]pyrimidin-4-yl}amino)-2-oxo-1-(propan-2-yl)-1,2-dihydroquinolin-3-yl]oxy}-N-methylacetamide] |  |  | < 10 | 50 to 70 |
| CNC(=O)COc1cc2cc(Nc3cc(N4CCC(CN5CCC6(CN(c7ccc8c(c7)CN(C7CCC(=O)NC7=O)C8=O)C6)C(F)(F)C5)CC4)ncc3Cl)ccc2n(C(C)C)c1=O (centres unmarked) [Compound 231, 2-{[6-({5-chloro-2-[4-({2-[2-(2,6-dioxopiperidin-3-yl)-1-oxo-2,3-dihydro-1H-isoindol-5-yl]-5,5-difluoro-2,7-diazaspiro[3.5]nonan-7-yl}methyl)piperidin-1-yl]pyridin-4-yl}amino)-2-oxo-1-(propan-2-yl)-1,2-dihydroquinolin-3-yl]oxy}-N-methylacetamide] | 50 to 70 | < 10 |  |  |
| CNC(=O)COc1cc2cc(Nc3nc(N4CCC5(CC4)CC(C(=O)N4CCN(c6cccc7c6CN(C6CCC(=O)NC6=O)C7=O)CC4)C5)ncc3Cl)ccc2n(C(C)C)c1=O (centres unmarked) [Compound 27, 2-[(6-{[5-chloro-2-(2-{4-[2-(2,6-dioxopiperidin-3-yl)-1-oxo-2,3-dihydro-1H-isoindol-4-yl]piperazine-1-carbonyl}-7-azaspiro [3.5]nonan-7-yl)pyrimidin-4-yl]amino}-2-oxo-1-(propan-2-yl)-1,2-dihydroquinolin-3-yl)oxy]-N-methylacetamide] |  |  | < 10 | 50 to 70 |
| CNC(=O)COc1cc2cc(Nc3nc(N4CCC(CN5CC6(CCN(c7ccc8c(c7F)CN(C7CCC(=O)NC7=O)C8=O)CC6)C5)CC4)ncc3Cl)ccc2n(C(C)C)c1=O (centres unmarked) [Compound 87, 2-{[6-({5-chloro-2-[4-({7-[2-(2,6-dioxopiperidin-3-yl)-4-fluoro-1-oxo-2,3-dihydro-1H-isoindol-5-yl]-2,7-diazaspiro[3.5]nonan-2-yl}methyl)piperidin-1-yl]pyrimidin-4-yl}amino)-2-oxo-1-(propan-2-yl)-1,2-dihydroquinolin-3-yl]oxy}-N-methylacetamide] |  |  | < 10 | 50 to 70 |
| CNC(=O)COc1cc2c(F)c(Nc3nc(N4CCC(CN5CCC6(CN(c7ccc8c(c7F)CN(C7CCC(=O)NC7=O)C8=O)C6)C(F)(F)C5)CC4)ncc3Cl)ccc2n(C(C)C)c1=O (centres unmarked) [Compound 376, 2-{[6-({5-chloro-2-[4-({2-[2-(2,6-dioxopiperidin-3-yl)-4-fluoro-1-oxo-2,3-dihydro-1H-isoindol-5-yl]-5,5-difluoro-2,7-diazaspiro[3.5]nonan-7-yl}methyl)piperidin-1-yl]pyrimidin-4-yl}amino)-5-fluoro-2-oxo-1-(propan-2-yl)-1,2-dihydroquinolin-3-yl]oxy}-N-methylacetamide] | ≥ 70 | < 10 |  |  |
| CNC(=O)COc1cc2cc(Nc3nc(N4CCC(O[C@H]5C[C@H](N6CCC(c7cc(OC)c8c(c7F)CN([C@H]7CCC(=O)NC7=O)C8=O)CC6)C5)CC4)ncc3Cl)ccc2n(C(C)C)c1=O [Compound 407, 2-({6-[(5-chloro-2-{4-[(1r,3r)-3-(4-{2-[(3S)-2,6-dioxopiperidin-3-yl]-4-fluoro-7-methoxy-1-oxo-2,3-dihydro-1H-isoindol-5-yl}piperidin-1-yl)cyclobutoxy]piperidin-1-yl}pyrimidin-4-yl)amino]-2-oxo-1-(propan-2-yl)-1,2-dihydroquinolin-3-yl}oxy)-N-methylacetamide] | ≥ 70 | < 10 |  |  |
| CNC(=O)COc1cc2cc(Nc3nc(N4CCC5(CCN(CC6(F)CCN(c7ccc(F)c8c7C(=O)N(C7CCC(=O)NC7=O)C8)CC6)CC5)CC4)ncc3Cl)ccc2n(C(C)C)c1=O (centres unmarked) [Compound 130, 2-{[6-({5-chloro-2-[9-({1-[2-(2,6-dioxopiperidin-3-yl)-7-fluoro-3-oxo-2,3-dihydro-1H-isoindol-4-yl]-4-fluoropiperidin-4-yl}methyl)-3,9-diazaspiro[5.5]undecan-3-yl]pyrimidin-4-yl}amino)-2-oxo-1-(propan-2-yl)-1,2-dihydroquinolin-3-yl]oxy}-N-methylacetamide] |  |  | ≥ 100 | ≥ 70 |
